Read-outs that look alike come from different tables or passages of the source.
Molecular target: T1, human APJ receptor (Homo sapiens, UniProt P35414)
T1 construct: expressed in transfected cells
T1 sequence (P35414 1-380): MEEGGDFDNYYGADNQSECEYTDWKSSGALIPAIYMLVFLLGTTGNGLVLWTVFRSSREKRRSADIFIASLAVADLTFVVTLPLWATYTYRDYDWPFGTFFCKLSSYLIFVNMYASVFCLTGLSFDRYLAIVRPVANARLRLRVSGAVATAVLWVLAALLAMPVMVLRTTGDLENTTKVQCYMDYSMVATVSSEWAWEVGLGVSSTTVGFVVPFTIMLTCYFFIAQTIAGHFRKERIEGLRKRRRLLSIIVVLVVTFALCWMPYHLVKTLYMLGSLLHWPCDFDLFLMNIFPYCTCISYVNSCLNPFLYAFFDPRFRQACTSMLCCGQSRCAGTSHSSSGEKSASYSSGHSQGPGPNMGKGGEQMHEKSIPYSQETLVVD
Assay: Intracellular cAMP accumulation assay (APJ hcAMP, HTRF)
Assay type: cell-based
Method in brief: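 Inhibition of 2 μM forskolin-driven cAMP ([…] present) measured by HTRF in 5,000 HEK293 cells/well stably expressing human APJ, 30 min, room temperature. EC50 came from a variable-slope sigmoidal fit; Ymax was relative to (Pyr1)apelin-13 set at 100%.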

[1] = Table 1, HEK293 cells stably expressing human APJ receptor, inhibition of forskolin-mediated cAMP production, read-out: APJ hcAMP EC50
[2] = Table 3, HEK293 cells stably expressing human APJ receptor, read-out: APJ cAMP Human EC50
[3] = human APJ, cAMP, potency range class, read-out: APJ cAMP Human EC50

Q: With CCC[C@@H](NC(=O)c1ccc(-c2c(C)cccc2-c2nc3cc(C(C)(C)C)ccc3[nH]2)c(C(=O)O)c1)c1ccccc1 [Example 144, 2′-(5-tert-butyl-1H-1,3-benzodiazol-2-yl)-6′-methyl-4-{[(1R)-1-phenylbutyl]carbamoyl}-[1,1′-biphenyl]-2-carboxylic acid] as the compound, how does the EC50 [1] read?
A: < 10 nM

Q: And the EC50 [2]?
A: < 10 nM

Q: With CCC[C@@H](NC(=O)c1ccc(-c2c(F)cccc2-c2nc3cc(C(C)(C)C)ccc3[nH]2)c(C(=O)O)c1)c1ccccc1 [Example 145, 2′-(5-tert-butyl-1H-1,3-benzodiazol-2-yl)-6′-fluoro-4-{[(1R)-1-phenylbutyl]carbamoyl}-[1,1′-biphenyl]-2-carboxylic acid] as the compound, how does the EC50 [1] read?
A: < 10 nM

Q: And the EC50 [2]?
A: < 10 nM

Q: For CCC[C@@H](NC(=O)c1ccc(-c2c(C)cccc2-c2nc3c(O)cccc3[nH]2)c(C(=O)O)c1)c1ccccc1 [Example 148, 2′-(4-hydroxy-1H-1,3-benzodiazol-2-yl)-6′-methyl-4-{[(1R)-1-phenylbutyl]carbamoyl}-[1,1′-biphenyl]-2-carboxylic acid], which EC50 [1] is on record?
A: < 10 nM

Q: What about the EC50 [2] of the same compound?
A: < 10 nM

Q: How did the EC50 [2] turn out when CCC[C@@H](NC(=O)c1ccc(-c2c(C)cccc2-c2nc3cnccc3[nH]2)c(C(=O)O)c1)c1ccccc1 [Example 149, 2′-{1H-imidazo[4,5-c]pyridin-2-yl}-6′-methyl-4-{[(1R)-1-phenylbutyl]carbamoyl}-[1,1′-biphenyl]-2-carboxylic acid] was run?
A: < 10 nM

Q: How did the EC50 [2] turn out when CCCC(CCC)NC(=O)c1ccc(-c2c(Cl)cccc2-c2nc3ccccc3[nH]2)c(C(=O)O)c1 [Example 153, (S)-2′-(1H-1,3-benzodiazol-2-yl)-6′-chloro-4-[(heptan-4-yl)carbamoyl]-[1,1′-biphenyl]-2-carboxylic acid] was run?
A: 10 to 100 nM

Q: Which EC50 [1] does the source give for CCOCC(NC(=O)c1ccc(-c2c(Cl)cccc2-c2nc3ccccc3[nH]2)c(C(=O)O)c1)c1ccccc1 [Example 157, (S)-2′-(1H-1,3-benzodiazol-2-yl)-6′-chloro-4-{[(1S)-2-ethoxy-1-phenylethyl]carbamoyl}-[1,1′-biphenyl]-2-carboxylic acid] here?
A: < 10 nM

Q: And the EC50 [2]?
A: < 10 nM

Q: Which results are given for CCCC(NC(=O)c1ccc(-c2c(Cl)cccc2-c2nc3ccccc3[nH]2)c(C(=O)O)c1)c1cccc(Cl)c1 [Example 167, (S)-2′-(1H-1,3-benzodiazol-2-yl)-6′-chloro-4-{[1-(3-chlorophenyl)butyl]carbamoyl}-[1,1′-biphenyl]-2-carboxylic acid]?
A: EC50 [1]: < 10 nM; EC50 [3]: < 10 nM

Q: Which results are given for CC[C@H](NC(=O)c1ccc(-c2c(Cl)cccc2-c2nc3ccccc3[nH]2)c(C(=O)O)c1)c1ccc(Cl)cc1OC [Example 170, (S)-2′-(1H-1,3-benzodiazol-2-yl)-6′-chloro-4-{[1-(4-chloro-2-methoxyphenyl)propyl]carbamoyl}-[1,1′-biphenyl]-2-carboxylic acid]?
A: EC50 [1]: < 10 nM; EC50 [3]: < 10 nM

Q: Which EC50 [1] does the source give for CCC[C@H](NC(=O)c1ccc(-c2c(Cl)cccc2-c2nc3ccccc3[nH]2)c(C(=O)O)c1)c1ccccc1F [Example 174, (S)-2′-(1H-1,3-benzodiazol-2-yl)-6′-chloro-4-{[1-(2-fluorophenyl)butyl]carbamoyl}-[1,1-biphenyl]-2-carboxylic acid] here?
A: < 10 nM

Q: And the EC50 [3]?
A: < 10 nM

Q: With CCCC(NC(=O)c1ccc(-c2c(Cl)cccc2-c2nc3ccccc3[nH]2)c(C(=O)O)c1)c1ccc(Cl)cc1OC [Example 179, (S)-2′-(1H-1,3-benzodiazol-2-yl)-6′-chloro-4-{[1-(4-chloro-2-methoxyphenyl)butyl]carbamoyl}-[1,1′-biphenyl]-2-carboxylic acid] as the compound, how does the EC50 [1] read?
A: < 10 nM

Q: What about the EC50 [3] of the same compound?
A: < 10 nM

Q: How did the EC50 [1] turn out when CCCC(NC(=O)c1ccc(-c2c(Cl)cccc2-c2nc3ccccc3[nH]2)c(C(=O)O)c1)c1ccccn1 [Example 180, (S)-2′-(1H-1,3-benzodiazol-2-yl)-6′-chloro-4-{[1-(pyridin-2-yl)butyl]carbamoyl}-[1,1′-biphenyl]-2-carboxylic acid] was run?
A: < 10 nM

Q: And the EC50 [3]?
A: < 10 nM

Q: For CCC[C@H](NC(=O)c1ccc(-c2c(Cl)cccc2-c2nc3ccccc3[nH]2)c(C(=O)O)c1)c1ccc(Cl)cc1C(F)(F)F [Example 181, (S)-2′-(1H-1,3-benzodiazol-2-yl)-6′-chloro-4-({1-[4-chloro-2-(trifluoromethyl)phenyl]butyl}carbamoyl)-[1,1′-biphenyl]-2-carboxylic acid], which EC50 [1] is on record?
A: < 10 nM

Q: What about the EC50 [3] of the same compound?
A: < 10 nM

Q: With CCC[C@H](NC(=O)c1ccc(-c2c(Cl)cccc2-c2nc3ccccc3[nH]2)c(C(=O)O)c1)c1ccc(Cl)cc1 [Example 187, (S)-2′-(1H-1,3-benzodiazol-2-yl)-6′-chloro-4-{[1-(4-chlorophenyl)butyl]carbamoyl}-[1,1′-biphenyl]-2-carboxylic acid] as the compound, how does the EC50 [1] read?
A: < 10 nM

Q: What about the EC50 [3] of the same compound?
A: < 10 nM

Q: CCC[C@H](NC(=O)c1ccc(-c2c(Cl)cccc2-c2nc3ccccc3[nH]2)c(C(=O)O)c1)c1cccnc1 [Example 190, (S)-2′-(1H-1,3-benzodiazol-2-yl)-6′-chloro-4-{[1-(pyridin-3-yl)butyl]carbamoyl}[1,1′-biphenyl]-2-carboxylic acid] was tested. Which EC50 [1] did it give?
A: 10 to 100 nM

Q: What about the EC50 [3] of the same compound?
A: 10 to 100 nM

Q: How did the EC50 [1] turn out when CCC[C@H](NC(=O)c1ccc(-c2c(Cl)cccc2-c2nc3ccccc3[nH]2)c(C(=O)O)c1)c1cccnc1 [Example 193, (S)-2′-(1H-1,3-benzodiazol-2-yl)-6′-chloro-4-{[1-(pyridin-3-yl)butyl]carbamoyl}-[1,1′-biphenyl]-2-carboxylic acid] was run?
A: 10 to 100 nM

Q: CCCC(NC(=O)c1ccc(-c2c(Cl)cccc2-c2nc3ccccc3[nH]2)c(C(=O)O)c1)c1cncs1 [Example 194, (S)-2′-(1H-1,3-benzodiazol-2-yl)-6′-chloro-4-{[1-(1,3-thiazol-5-yl)butyl]carbamoyl}-[1,1′-biphenyl]-2-carboxylic acid] was tested. Which EC50 [1] did it give?
A: 10 to 100 nM

Q: And the EC50 [3]?
A: 10 to 100 nM

Q: Which results are given for CCC[C@H](NC(=O)c1ccc(-c2c(Cl)cccc2-c2nc3cc(Cl)c(F)cc3[nH]2)c(C(=O)O)c1)C1CCCCCC1 [Example 202, (S)-2′-chloro-6′-(5-chloro-6-fluoro-1H-1,3-benzodiazol-2-yl)-4-[(1-cycloheptylbutyl)carbamoyl]-[1,1′-biphenyl]-2-carboxylic acid]?
A: EC50 [1]: < 10 nM; EC50 [3]: < 10 nM

Q: Which EC50 [1] does the source give for CCCC(NC(=O)c1ccc(-c2cc(Cl)ccc2-c2nc3cc(C(C)(C)C)ccc3[nH]2)c(C(=O)OC)c1)c1ccccc1OC (stereo not drawn) [Example 203, methyl 2′-(5-tert-butyl-1H-1,3-benzodiazol-2-yl)-5′-chloro-4-{[1-(2-methoxyphenyl)butyl]carbamoyl}-[1,1′-biphenyl]-2-carboxylate] here?
A: 10 to 100 nM

Q: And the EC50 [3]?
A: 10 to 100 nM

Q: With COc1cc2nc(-c3cccc(Cl)c3-c3ccc(C(=O)NC(c4ccc(Cl)cc4)C4CC4)cc3C(=O)NS(C)(=O)=O)[nH]c2cc1F (stereo not drawn) [Example 206, 2′-chloro-N4-[(4-chlorophenyl)(cyclopropyl)methyl]-6′-(6-fluoro-5-methoxy-1H-1,3-benzodiazol-2-yl)-N2-methanesulfonyl-[1,1′-biphenyl]-2,4-dicarboxamide] as the compound, how does the EC50 [1] read?
A: 10 to 100 nM

Q: And the EC50 [3]?
A: 10 to 100 nM

Q: Which results are given for CCCC(NC(=O)c1ccc(-c2cc(Cl)ccc2-c2nc3ccccc3[nH]2)c(C(=O)O)c1)c1ccccc1OC (stereo not drawn) [Example 207, 2′-(1H-1,3-benzodiazol-2-yl)-5′-chloro-4-{[1-(2-methoxyphenyl)butyl]carbamoyl}-[1,1′-biphenyl]-2-carboxylic acid]?
A: EC50 [1]: < 10 nM; EC50 [3]: < 10 nM

Q: CCCC(NC(=O)c1ccc(-c2cc(Cl)ccc2-c2nc3ccccc3[nH]2)c(C(=O)O)c1)c1ccccc1OC (stereo not drawn) [Example 208, 2′-(1H-1,3-benzodiazol-2-yl)-5′-chloro-4-{[1-(2-methoxyphenyl)butyl]carbamoyl}-[1,1′-biphenyl]-2-carboxylic acid] was tested. Which EC50 [1] did it give?
A: < 10 nM

Q: How did the EC50 [1] turn out when O=C(NC(CC1CCOCC1)c1ccccc1)c1ccc(-c2cc(Cl)ccc2-c2nc3ccccc3[nH]2)c(C(=O)O)c1 (stereo not drawn) [Example 216, 2′-(1H-1,3-benzodiazol-2-yl)-5′-chloro-4-{[2-(oxan-4-yl)-1-phenylethyl]carbamoyl}-[1,1′-biphenyl]-2-carboxylic acid] was run?
A: 101 to 500 nM

Q: What about the EC50 [3] of the same compound?
A: 101 to 500 nM

Q: With O=C(NC(CC1CCOCC1)c1ccccc1)c1ccc(-c2cc(Cl)ccc2-c2nc3ccccc3[nH]2)c(C(=O)O)c1 (stereo not drawn) [Example 217, 2′-(1H-1,3-benzodiazol-2-yl)-5′-chloro-4-{[2-(oxan-4-yl)-1-phenylethyl]carbamoyl}-[1,1′-biphenyl]-2-carboxylic acid] as the compound, how does the EC50 [1] read?
A: 101 to 500 nM

Q: For CCCC(NC(=O)c1ccc(-c2cc(Cl)ccc2-c2nc3cc(OC)ccc3[nH]2)c(C(=O)O)c1)c1ccccc1OC (stereo not drawn) [Example 218, 5′-chloro-2′-(5-methoxy-1H-1,3-benzodiazol-2-yl)-4-{[1-(2-methoxyphenyl)butyl]carbamoyl}-[1,1′-biphenyl]-2-carboxylic acid], which EC50 [1] is on record?
A: < 10 nM

Q: And the EC50 [3]?
A: < 10 nM

Q: With O=C(N[C@H](c1ccc(F)cc1)C1CC1)c1ccc(-c2c(Cl)cccc2-c2nc3ccccc3[nH]2)c(C(=O)O)c1 [Example 219, (S)-2′-(1H-1,3-benzodiazol-2-yl)-6′-chloro-4-{[cyclopropyl(4-fluorophenyl)methyl]carbamoyl}-[1,1′-biphenyl]-2-carboxylic acid] as the compound, how does the EC50 [1] read?
A: < 10 nM

Q: What about the EC50 [3] of the same compound?
A: < 10 nM

Reference: patent US11498903B2 (BRISTOL-MYERS SQUIBB COMPANY, priority 2017, dated 2022)
